Here are results for 29 molecules from patent US9974778B2, “Substituted pyridinones as MGAT2 inhibitors” (BRISTOL-MYERS SQUIBB COMPANY, priority 2014, dated 2018).

The target in this test is T1, Human MGAT-2 (Homo sapiens, UniProt Q3SYC2).
T1 construct: made in house; host or cells: Sf9 cells (membrane preparation)
T1 sequence (Q3SYC2 whole entry): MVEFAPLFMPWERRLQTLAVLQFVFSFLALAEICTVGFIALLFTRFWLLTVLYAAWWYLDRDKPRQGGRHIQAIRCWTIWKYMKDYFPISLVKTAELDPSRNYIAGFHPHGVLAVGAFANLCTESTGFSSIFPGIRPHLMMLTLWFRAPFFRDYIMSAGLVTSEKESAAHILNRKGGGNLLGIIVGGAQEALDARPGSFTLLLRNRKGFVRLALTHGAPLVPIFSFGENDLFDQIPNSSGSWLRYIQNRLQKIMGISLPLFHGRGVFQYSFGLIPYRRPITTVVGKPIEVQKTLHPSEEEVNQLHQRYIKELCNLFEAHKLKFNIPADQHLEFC
Briefly: MGAT LCMS Assay. Particulars: human MGAT2 membranes expressed in Sf9 cells; 100 μM 2-oleoylglycerol, 15 μM oleoyl-coenzyme A; read-out: h-MGAT LCMS IC50. It is filed as biochemical. As to the method:
Assay plates were run through a fully automated robotics system and shaken for 5 seconds every minute for a total 10 minutes. The reactions were then quenched with 120 μL of ice cold methanol containing 1 μg/mL 1,2-distearoyl-rac-glycerol as the internal standard. Plates were shaken for 2 minutes and spun down to remove protein precipitation. After the spin, samples were transferred to LC/MS compatible PCR plates. For LC/MS analysis, a ThermoFisher Surveyor pump, utilizing a Waters […]® C8, 50×2.1 mm column, was used for the chromatography of enzyme products. The buffer system consists of 0.1% formic acid in water with a mobile phase consisting 0.1% formic acid in methanol. […] The first 0.5 minutes of each injection was diverted to waste to eliminate the presence of Phosphate buffer in the enzymatic reaction. The column was run at 0.6 mL/min and a temperature of 65° C. Mass spectrometry analysis of the samples was performed on a ThermoFisher Quantum Triple quad utilizing APCI (+) as the mode of ionization. […] The ratio of Diolein to internal standard (Peak Area Ratio) is utilized to calculate IC50 values.
For orientation: IC50 means the midpoint of a concentration-inhibition curve. On to `CCc1ccc(-c2cc(-c3ccc(OCCCCCC(F)(F)F)cc3C(F)(F)F)[nH]c(=O)c2C(=O)NS(=O)(=O)C2CC2)s1` [Example 154, N-(Cyclopropanesulfonyl)-4-(5-ethylthiophen-2-yl)-2-oxo-6-{4-[(6,6,6-trifluorohexyl)oxy]-2-(trifluoromethyl)phenyl}-1,2-dihydropyridine-3-carboxamide], for which the IC50 was found to be 2 nM.

As to `CC(C)(C)C1CC=C(c2ccc(-c3cc(-c4ccn(CC5CC5)n4)c(-c4nn[nH]n4)c(=O)[nH]3)cc2)CC1` (centres unmarked) [Example 171, 6-[4-(4-tert-Butylcyclohex-1-en-1-yl)phenyl]-4-[1-(cyclopropylmethyl)-1H-pyrazol-3-yl]-3-(2H-1,2,3,4-tetrazol-5-yl)-1,2-dihydropyridin-2-one], the IC50 worked out at 6 nM.

`CCCCCc1ccc(-c2[nH]c(=O)c(C(=O)Nc3ccc(OCC)cc3)c(-c3ccc(C)cc3)c2-c2ccccc2)cc1` [Example 32, N-(4-Ethoxyphenyl)-2-oxo-6-(4-pentylphenyl)-5-phenyl-4-(p-tolyl)-1,2-dihydropyridine-3-carboxamide]: the IC50 was determined as 193 nM.

On to `Cc1ccc(-c2c(Cl)c(-c3ccc(OCCCC(F)(F)F)cc3)[nH]c(=O)c2-c2nnn[nH]2)cc1` [Example 19, 5-Chloro-3-(1H-tetrazol-5-yl)-4-(p-tolyl)-6-(4-(4,4,4-trifluorobutoxy)phenyl)pyridin-2(1H)-one], for which the IC50 amounted to 100 nM.

As to `Cc1ccc(-c2cc(-c3ccc(OCCCC(F)(F)F)c(C)c3)[nH]c(=O)c2-c2nnn[nH]2)cc1` [Example 58, 6-(3-Methyl-4-(4,4,4-trifluorobutoxy)phenyl)-3-(1H-tetrazol-5-yl)-4-(p-tolyl)pyridin-2(1H)-one], the IC50 turned out to be 575 nM.

For `O=C(NS(=O)(=O)C1CC1)c1c(-c2ncc(C3CC3)s2)cc(-c2ccc(OCCCC(F)(F)F)cc2F)[nH]c1=O` [Example 138, N-(Cyclopropylsulfonyl)-4-(5-cyclopropylthiazol-2-yl)-6-(2-fluoro-4-(4,4,4-trifluorobutoxy)phenyl)-2-oxo-1,2-dihydropyridine-3-carboxamide], the IC50 amounted to 13 nM.

In the case of `CCc1ccc(-c2cc(-c3ccc(C4=CCC(C(C)(C)C)CC4)cc3)[nH]c(=O)c2-c2nn[nH]n2)s1` (centres unmarked) [Example 163, 6-[4-(4-tert-Butylcyclohex-1-en-1-yl)phenyl]-4-(5-ethylthiophen-2-yl)-3-(2H-1,2,3,4-tetrazol-5-yl)-1,2-dihydropyridin-2-one], the IC50 was 69 nM.

As for `CCCC1CCC(c2ccc(-c3cc(-c4ccc(CC)s4)c(-c4nn[nH]n4)c(=O)[nH]3)cc2)CC1` (centres unmarked) [Example 167, 4-(5-Ethylthiophen-2-yl)-6-[4-(4-propylcyclohexyl)phenyl]-3-(2H-1,2,3,4-tetrazol-5-yl)-1,2-dihydropyridin-2-one], the IC50 is 39 nM.

`CCOc1ccc(NC(=O)c2c(-c3ccc(C)cc3)c(I)c(C3CCCCC3)[nH]c2=O)cc1` [Example 15, 6-Cyclohexyl-N-(4-ethoxyphenyl)-5-iodo-2-oxo-4-(p-tolyl)-1,2-dihydropyridine-3-carboxamide]: the IC50 stood at 5 nM.

On to `CCOc1ccc(NC(=O)c2c(-c3ccc(N(C)C)cc3)cc(C3(F)CCCCC3)[nH]c2=O)cc1` [Example 39, 4-(4-(Dimethylamino)phenyl)-N-(4-ethoxyphenyl)-6-(1-fluorocyclohexyl)-2-oxo-1,2-dihydropyridine-3-carboxamide], for which the IC50 came to 139 nM.

Turning to `CCc1ccc(-c2cc(-c3ccc(OCCCC(F)(F)F)cc3F)[nH]c(=O)c2C(=O)NS(C)(=O)=O)s1` [Example 135, 4-(5-Ethylthiophen-2-yl)-6-(2-fluoro-4-(4,4,4-trifluorobutoxy)phenyl)-N-(methylsulfonyl)-2-oxo-1,2-dihydropyridine-3-carboxamide], the IC50 amounted to 5 nM.

Regarding `CC1(C)CC=C(c2ccc(-c3cc(-c4ccn(CC5CC5)n4)c(-c4nn[nH]n4)c(=O)[nH]3)cc2)CC1` [Example 170, 4-[1-(Cyclopropylmethyl)-1H-pyrazol-3-yl]-6-[4-(4,4-dimethylcyclohex-1-en-1-yl)phenyl]-3-(2H-1,2,3,4-tetrazol-5-yl)-1,2-dihydropyridin-2-one], the IC50 came to 17 nM.

Take `COc1ccc(NC(=O)c2c(-c3ccc(C)cc3)cc(C3CCCCC3)[nH]c2=O)cc1` [Example 34, 6-Cyclohexyl-N-(4-methoxyphenyl)-2-oxo-4-(p-tolyl)-1,2-dihydropyridine-3-carboxamide]: the IC50 was 223 nM.

As to `O=c1[nH]c(-c2ccc(OCCCCCC(F)(F)F)cc2F)cc(-c2ccc(C(F)F)cc2)c1-c1nnn[nH]1` [Example 130, 4-(4-(Difluoromethyl)phenyl)-6-(2-fluoro-4-((6,6,6-trifluorohexyl)oxy)phenyl)-3-(1H-tetrazol-5-yl)pyridin-2(1H)-one], the IC50 came to 4 nM.

Regarding `O=C(Nc1ccc(OC(F)(F)F)cc1)c1c(-c2cnn(C3CC3)c2)cc(C2CCCCC2)[nH]c1=O` [Example 94], the half-inhibitory concentration (IC50) was found to be 355 nM.

As to `O=c1[nH]c(-c2ccc(OCCCC(F)(F)F)cc2)cc(-c2cc3ccccc3s2)c1-c1nnn[nH]1` [Example 47, 4-(Benzo[b]thiophen-2-yl)-3-(1H-tetrazol-5-yl)-6-(4-(4,4,4-trifluorobutoxy)phenyl)pyridin-2(1H)-one], the IC50 came out at 29 nM.

With `CCc1ccc(-c2c(Cl)c(-c3ccc(OCCCC(F)(F)F)cc3)[nH]c(=O)c2-c2nnn[nH]2)s1` [Example 128, 5-Chloro-4-(5-ethylthiophen-2-yl)-3-(1H-tetrazol-5-yl)-6-(4-(4,4,4-trifluorobutoxy)phenyl)pyridin-2(1H)-one], the IC50 was 83 nM.

With `Cc1ccc(-c2c(F)c(-c3ccc(OCCCC(F)(F)F)cc3)[nH]c(=O)c2-c2nnn[nH]2)cc1` [Example 17, 5-Fluoro-3-(1H-tetrazol-5-yl)-4-(p-tolyl)-6-(4-(4,4,4-trifluorobutoxy)phenyl)pyridin-2(1H)-one], the IC50 is 298 nM.

As for `CCc1ccc(-c2cc(-c3ccc(OCCCC(F)(F)F)cc3F)[nH]c(=O)c2C(=O)Nc2ccc(OC(F)(F)F)cc2)s1` [Example 116, 4-(5-Ethylthiophen-2-yl)-6-(2-fluoro-4-(4,4,4-trifluorobutoxy)phenyl)-2-oxo-N-(4-(trifluoromethoxy)phenyl)-1,2-dihydropyridine-3-carboxamide], the IC50 is 17 nM.

`CS(=O)(=O)NC(=O)c1c(-c2ccn(CC3CC3)n2)cc(-c2ccc(OCCCC(F)(F)F)cc2)[nH]c1=O` [Example 98, 4-(1-(Cyclopropylmethyl)-1H-pyrazol-3-yl)-N-(methylsulfonyl)-2-oxo-6-(4-(4,4,4-trifluorobutoxy)phenyl)-1,2-dihydropyridine-3-carboxamide]: the IC50 worked out at 332 nM.

For `CCCCCc1ccc(-c2cc(-c3ccc(C)cc3)c(C(=O)Nc3cccnc3)c(=O)[nH]2)cc1` [Example 23, 2-Oxo-6-(4-pentylphenyl)-N-(pyridin-3-yl)-4-(p-tolyl)-1,2-dihydropyridine-3-carboxamide], the IC50 was 24 nM.

Turning to `CCn1ccc(-c2cc(-c3ccc(OCCCC(F)(F)F)cc3C(F)(F)F)[nH]c(=O)c2-c2nn[nH]n2)n1` [Example 129, 4-(1-Ethyl-1H-pyrazol-3-yl)-3-(2H-tetrazol-5-yl)-6-(4-(4,4,4-trifluorobutoxy)-2-(trifluoromethyl)phenyl)pyridin-2(1H)-one], the IC50 was determined as 51 nM.

As for `CC(C)(C)c1ccc(-c2cc(-c3ccc(OCCCC(F)(F)F)cc3)[nH]c(=O)c2C(=O)O)cc1` [Example 11, 4-(4-(tert-Butyl)phenyl)-2-oxo-6-(4-(4,4,4-trifluorobutoxy)phenyl)-1,2-dihydropyridine-3-carboxylic acid], the IC50 was 461 nM.

For `COc1ccc(-c2cc(-c3ccc(OCCCCCC(F)(F)F)cc3)[nH]c(=O)c2C(=O)NS(=O)(=O)C2CC2)cc1` [Example 65], the IC50 turned out to be 172 nM.

As to `CCc1ccc(-c2cc(-c3ccc(OCCCC(F)(F)F)cc3F)[nH]c(=O)c2-c2nn[nH]n2)s1` [Example 20, 4-(5-Ethylthiophen-2-yl)-6-(2-fluoro-4-(4,4,4-trifluorobutoxy)phenyl)-3-(2H-tetrazol-5-yl)pyridin-2(1H)-one], the IC50 came to 5 nM.

Consider `Cc1ccc(-c2c(Br)c(-c3ccc(OCCCC(F)(F)F)cc3)[nH]c(=O)c2-c2nnn[nH]2)cc1` [Example 6, 5-Bromo-3-(1H-tetrazol-5-yl)-4-(p-tolyl)-6-(4-(4,4,4-trifluorobutoxy)phenyl)pyridin-2(1H)-one], for which the IC50 amounted to 79 nM.

For `CCc1ccc(-c2cc(-c3ccc(OCCCC(F)(F)F)cc3Cl)[nH]c(=O)c2C(=O)NS(C)(=O)=O)s1` [Example 140, 6-(2-Chloro-4-(4,4,4-trifluorobutoxy)phenyl)-4-(5-ethylthiophen-2-yl)-N-(methylsulfonyl)-2-oxo-1,2-dihydropyridine-3-carboxamide], the concentration for half-maximal inhibition (IC50) amounted to 30 nM.

In the case of `O=c1[nH]c(-c2ccc(OCCCCCC(F)(F)F)cc2F)cc(-c2ccn(C3CC3)n2)c1-c1nn[nH]n1` [Example 104, 4-(1-Cyclopropyl-1H-pyrazol-3-yl)-6-(2-fluoro-4-((6,6,6-trifluorohexyl)oxy)phenyl)-3-(2H-tetrazol-5-yl)pyridin-2(1H)-one], the IC50 was 84 nM.

Regarding `Cc1ccc(-c2cc(-c3ccc(OCCCCCC(F)(F)F)cc3Cl)[nH]c(=O)c2C(=O)Nc2ccc(OC(F)(F)F)cc2)cc1` [Example 131, 6-(2-Chloro-4-((6,6,6-trifluorohexyl)oxy)phenyl)-2-oxo-4-(p-tolyl)-Ar-(4-(trifluoromethoxy)phenyl)-1,2-dihydropyridine-3-carboxamide], the IC50 amounted to 7 nM.
